Test results from patent US11000033B2, “Ketone or oxime compound, and herbicide” (NISSAN CHEMICAL CORPORATION, priority 2014, dated 2021).

How the values were obtained:
Format in all cases: in vivo
[1] = system: Echinochloa oryzacola Vasing.; test: Test Example 2: herbicidal activity, application during weed generation in submerged conditions (symbol A); settings: Table 23; application herbicide amount 320 g/ha; grade 0-5 by criteria of Test Example 1
Procedure, shortened: (§1)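 Visual herbicidal ratings, taken three weeks after dosing, reflect post-emergence water-surface application to seedlings at one to two leaves. Conditions: co-sown weeds in alluvial soil flooded to 4 cm, greenhouse held at 25° C. to 30° C.; compound given as water-diluted emulsion at a fixed herbicide amount.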

Scirpus juncoides = test: Test Example 2: herbicidal activity, application during weed generation in submerged conditions (symbol B); settings: Table 23; application herbicide amount 320 g/ha; grade 0-5 by criteria of Test Example 1
Procedure, shortened: as §1

[2] = system: Echinochloa crus-galli var. crus-galli; test: Test Example 3: herbicidal effect by foliage application, Wagner pot (symbol H); settings: application herbicide amount 320 g/ha
Procedure, shortened: (§2)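 Herbicidal activity was rated three weeks after a foliar spray of diluted emulsion concentrate, applied at a predetermined dose to plants grown for 14 days from seed in waterlogged alluvial soil within a 25–30 °C greenhouse.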

Leptochloa chinensis = test: Test Example 3: herbicidal effect by foliage application, Wagner pot (symbol D); settings: application herbicide amount 320 g/ha
Procedure, shortened: as §2

Digitaria ciliaris [3] = test: Test Example 4: herbicidal effect by soil treatment (symbol F)
Procedure, shortened: (§3)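 Seeds were sown in sterilized diluvial soil, covered with about 1.5 cm of soil, and the soil surface was sprayed with a water-diluted emulsion of the compound at a predetermined rate. Plants grew in a greenhouse at 25° C. to 30° C.; effects were scored visually 3 weeks after application.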

[4] = system: Echinochloa crus-galli var. crus-galli; test: Test Example 4: herbicidal effect by soil treatment (symbol H)
Procedure, shortened: as §3

Lolium multiflorum Lam. = test: Test Example 4: herbicidal effect by soil treatment (symbol K)
Procedure, shortened: as §3

Apera spica-venti = test: Test Example 4: herbicidal effect by soil treatment (symbol L); settings: application herbicide amount 320 g/ha
Procedure, shortened: as §3

Abutilon theophrasti = test: Test Example 4: herbicidal effect by soil treatment (symbol M)
Procedure, shortened: as §3

Digitaria ciliaris [5] = test: Test Example 5: herbicidal effect by foliage application, plastic box (symbol F); settings: 320 g/ha, 3 weeks after application
Procedure, shortened: (§4)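 Greenhouse foliar test: seedlings at 14 days, grown 25° C. to 30° C. in sterilized diluvial soil; compound applied as an aqueous dilution of an emulsion; response read 3 weeks after spraying.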

Avena fatua = test: Test Example 5: herbicidal effect by foliage application, plastic box (symbol I); settings: 320 g/ha, 3 weeks after application
Procedure, shortened: as §4

Amaranthus retroflexus [6] = test: Test Example 5: herbicidal effect by foliage application, plastic box (symbol N); settings: 320 g/ha, 3 weeks after application
Procedure, shortened: as §4

Chenopodium album = test: Test Example 5: herbicidal effect by foliage application, plastic box (symbol O); settings: 320 g/ha, 3 weeks after application
Procedure, shortened: as §4

Veronica persica = test: Test Example 5: herbicidal effect by foliage application, plastic box (symbol R); settings: 320 g/ha, 3 weeks after application
Procedure, shortened: as §4

rice plant = test: Test Example 5: effect on crop by foliage application, plastic box (symbol b); settings: 320 g/ha, 3 weeks after application
Procedure, shortened: (§5)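 Soil: sterilized diluvial. Container: plastic box, 21 × 13 cm, 7 cm deep. Sowing: spot-like, ~1.5 cm cover. Growth: greenhouse, 25° C. to 30° C.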

wheat = test: Test Example 5: effect on crop by foliage application, plastic box (symbol e); settings: 320 g/ha, 3 weeks after application
Procedure, shortened: as §5

beet = test: Test Example 5: effect on crop by foliage application, plastic box (symbol f); settings: 320 g/ha, 3 weeks after application
Procedure, shortened: as §5

Amaranthus retroflexus [7] = test: Test Example 4: herbicidal effect by soil treatment (symbol N)
Procedure, shortened: as §3

rapeseed = test: Test Example 4: effect on crop by soil treatment (symbol g)
Procedure, shortened: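 Plants are raised in a greenhouse (25° C. to 30° C.) from spot-sown seed, which sits under about 1.5 cm of sterilized diluvial soil in a box shared with weed species.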

Stellaria media = test: Test Example 5: herbicidal effect by foliage application, plastic box (symbol P); settings: 320 g/ha, 3 weeks after application
Procedure, shortened: as §4

[8] = application herbicide amount 320 g/ha

CON=C(C)CC1CC(OC(=O)OC)=C(c2c(C)cc(C)cc2C)C1=O (stereo not drawn) [1-014]
Herbicidal effect grade, A: Echinochloa oryzacola Vasing. [1]: 5 (Herbicidal ratio of 90% or more (almost completely withered))
Herbicidal effect grade, B: Scirpus juncoides (Scirpus juncoides): 3 (Herbicidal ratio of 40% or higher and lower than 70%)
herbicidal effect on H (Echinochloa crus-galli var. crus-galli), grade 0-5 [2]: 5 (Herbicidal ratio of 90% or more (almost completely withered))
herbicidal effect on D (Leptochloa chinensis), grade 0-5 (Leptochloa chinensis): 5 (Herbicidal ratio of 90% or more (almost completely withered))
F (Digitaria ciliaris) herbicidal effect grade (Digitaria ciliaris [3]; [8]): 5 (Herbicidal ratio of 90% or more (almost completely withered))
H (Echinochloa crus-galli var. crus-galli) herbicidal effect grade [4, 8]: 5 (Herbicidal ratio of 90% or more (almost completely withered))
K (Lolium multiflorum Lam.) herbicidal effect grade (Lolium multiflorum Lam.; [8]): 5 (Herbicidal ratio of 90% or more (almost completely withered))
L (Apera spica-venti) herbicidal effect grade (Apera spica-venti): 5 (Herbicidal ratio of 90% or more (almost completely withered))
M (Abutilon theophrasti) herbicidal effect grade (Abutilon theophrasti; [8]): 4 (Herbicidal ratio of 70% or higher and lower than 90%)
F: Digitaria ciliaris, herbicidal effect grade (Digitaria ciliaris [5]): 5 (Herbicidal ratio of 90% or more (almost completely withered))
I: Avena fatua, herbicidal effect grade (Avena fatua): 5 (Herbicidal ratio of 90% or more (almost completely withered))
N: Amaranthus retroflexus, herbicidal effect grade (Amaranthus retroflexus [6]): 5 (Herbicidal ratio of 90% or more (almost completely withered))
O: Chenopodium album, herbicidal effect grade (Chenopodium album): 3 (Herbicidal ratio of 40% or higher and lower than 70%)
R: Veronica persica, herbicidal effect grade (Veronica persica): 3 (Herbicidal ratio of 40% or higher and lower than 70%)
b: directly sowed rice plant, effect on crop grade (rice plant): 5 (Herbicidal ratio of 90% or more (almost completely withered))
e: wheat, effect on crop grade (wheat): 5 (Herbicidal ratio of 90% or more (almost completely withered))
f: beet, effect on crop grade (beet): 3 (Herbicidal ratio of 40% or higher and lower than 70%)

CON=C(C)CC1CC(OC(=O)c2ccc(S(C)(=O)=O)c(C(=O)OC)c2Cl)=C(c2c(C)cc(C)cc2C)C1=O (stereo not drawn) [1-162]
Herbicidal effect grade, A: Echinochloa oryzacola Vasing. [1]: 5 (Herbicidal ratio of 90% or more (almost completely withered))
Herbicidal effect grade, B: Scirpus juncoides (Scirpus juncoides): 1 (Herbicidal ratio of 5% or higher and lower than 20%)
herbicidal effect on H (Echinochloa crus-galli var. crus-galli), grade 0-5 [2]: 5 (Herbicidal ratio of 90% or more (almost completely withered))
herbicidal effect on D (Leptochloa chinensis), grade 0-5 (Leptochloa chinensis): 5 (Herbicidal ratio of 90% or more (almost completely withered))
F: Digitaria ciliaris, herbicidal effect grade (Digitaria ciliaris [3]; 320 g/ha): 5 (Herbicidal ratio of 90% or more (almost completely withered))
H: Echinochloa crus-galli var. crus-galli, herbicidal effect grade ([4]; 320 g/ha): 5 (Herbicidal ratio of 90% or more (almost completely withered))
K: Lolium multiflorum Lam., herbicidal effect grade (Lolium multiflorum Lam.; 320 g/ha): 5 (Herbicidal ratio of 90% or more (almost completely withered))
M: Abutilon theophrasti, herbicidal effect grade (Abutilon theophrasti; 320 g/ha): 5 (Herbicidal ratio of 90% or more (almost completely withered))
N: Amaranthus retroflexus, herbicidal effect grade (Amaranthus retroflexus [7]; 320 g/ha): 4 (Herbicidal ratio of 70% or higher and lower than 90%)
g: rapeseed, effect grade on crop (rapeseed; 320 g/ha): 4 (Herbicidal ratio of 70% or higher and lower than 90%)
F: Digitaria ciliaris, herbicidal effect grade (Digitaria ciliaris [5]): 5 (Herbicidal ratio of 90% or more (almost completely withered))
I: Avena fatua, herbicidal effect grade (Avena fatua): 5 (Herbicidal ratio of 90% or more (almost completely withered))
N: Amaranthus retroflexus, herbicidal effect grade (Amaranthus retroflexus [6]): 1 (Herbicidal ratio of 5% or higher and lower than 20%)
O: Chenopodium album, herbicidal effect grade (Chenopodium album): 4 (Herbicidal ratio of 70% or higher and lower than 90%)
P: Stellaria media, herbicidal effect grade (Stellaria media): 4 (Herbicidal ratio of 70% or higher and lower than 90%)
R: Veronica persica, herbicidal effect grade (Veronica persica): 3 (Herbicidal ratio of 40% or higher and lower than 70%)
b: directly sowed rice plant, effect on crop grade (rice plant): 5 (Herbicidal ratio of 90% or more (almost completely withered))
e: wheat, effect on crop grade (wheat): 5 (Herbicidal ratio of 90% or more (almost completely withered))
f: beet, effect on crop grade (beet): 3 (Herbicidal ratio of 40% or higher and lower than 70%)

Cc1cc(C)c(C2=C(O)CC(CC(=O)c3ccc(F)cc3)C2=O)c(C)c1 (stereo not drawn) [2-032]
Herbicidal effect grade, A: Echinochloa oryzacola Vasing. [1]: 4 (Herbicidal ratio of 70% or higher and lower than 90%)
Herbicidal effect grade, B: Scirpus juncoides (Scirpus juncoides): 1 (Herbicidal ratio of 5% or higher and lower than 20%)
herbicidal effect on H (Echinochloa crus-galli var. crus-galli), grade 0-5 [2]: 5 (Herbicidal ratio of 90% or more (almost completely withered))
herbicidal effect on D (Leptochloa chinensis), grade 0-5 (Leptochloa chinensis): 3 (Herbicidal ratio of 40% or higher and lower than 70%)
F: Digitaria ciliaris, herbicidal effect grade (Digitaria ciliaris [3]; [8]): 4 (Herbicidal ratio of 70% or higher and lower than 90%)
H: Echinochloa crus-galli var. crus-galli, herbicidal effect grade [4, 8]: 4 (Herbicidal ratio of 70% or higher and lower than 90%)
K: Lolium multiflorum Lam., herbicidal effect grade (Lolium multiflorum Lam.; [8]): 5 (Herbicidal ratio of 90% or more (almost completely withered))
M: Abutilon theophrasti, herbicidal effect grade (Abutilon theophrasti; [8]): 0 (Herbicidal ratio of 5% or lower (almost no effect))
N: Amaranthus retroflexus, herbicidal effect grade (Amaranthus retroflexus [7]; [8]): 0 (Herbicidal ratio of 5% or lower (almost no effect))
g: rapeseed, effect on crop grade (rapeseed; [8]): 1 (Herbicidal ratio of 5% or higher and lower than 20%)
F: Digitaria ciliaris, herbicidal effect grade (Digitaria ciliaris [5]): 2 (Herbicidal ratio of 20% or higher and lower than 40%)
I: Avena fatua, herbicidal effect grade (Avena fatua): 3 (Herbicidal ratio of 40% or higher and lower than 70%)
N: Amaranthus retroflexus, herbicidal effect grade (Amaranthus retroflexus [6]): 0 (Herbicidal ratio of 5% or lower (almost no effect))
O: Chenopodium album, herbicidal effect grade (Chenopodium album): 0 (Herbicidal ratio of 5% or lower (almost no effect))
P: Stellaria media, herbicidal effect grade (Stellaria media): 0 (Herbicidal ratio of 5% or lower (almost no effect))
R: Veronica persica, herbicidal effect grade (Veronica persica): 0 (Herbicidal ratio of 5% or lower (almost no effect))
b: directly sowed rice plant, effect on crop grade (rice plant): 5 (Herbicidal ratio of 90% or more (almost completely withered))
e: wheat, effect on crop grade (wheat): 1 (Herbicidal ratio of 5% or higher and lower than 20%)
f: beet, effect on crop grade (beet): 0 (Herbicidal ratio of 5% or lower (almost no effect))

CCC(=O)CCC1CC(OC)=C(c2c(C)cc(C)cc2C)C1=O (stereo not drawn) [5-002]
Herbicidal effect grade, A: Echinochloa oryzacola Vasing. [1]: 0 (Herbicidal ratio of 5% or lower (almost no effect))
Herbicidal effect grade, B: Scirpus juncoides (Scirpus juncoides): 0 (Herbicidal ratio of 5% or lower (almost no effect))
herbicidal effect on H (Echinochloa crus-galli var. crus-galli), grade 0-5 [2]: 0 (Herbicidal ratio of 5% or lower (almost no effect))
herbicidal effect on D (Leptochloa chinensis), grade 0-5 (Leptochloa chinensis): 0 (Herbicidal ratio of 5% or lower (almost no effect))
F: Digitaria ciliaris, herbicidal effect grade (Digitaria ciliaris [3]; [8]): 0 (Herbicidal ratio of 5% or lower (almost no effect))
H: Echinochloa crus-galli var. crus-galli, herbicidal effect grade [4, 8]: 0 (Herbicidal ratio of 5% or lower (almost no effect))
K: Lolium multiflorum Lam., herbicidal effect grade (Lolium multiflorum Lam.; [8]): 0 (Herbicidal ratio of 5% or lower (almost no effect))
L: Apera spica-venti, herbicidal effect grade (Apera spica-venti): 0 (Herbicidal ratio of 5% or lower (almost no effect))
M: Abutilon theophrasti, herbicidal effect grade (Abutilon theophrasti; [8]): 0 (Herbicidal ratio of 5% or lower (almost no effect))
N: Amaranthus retroflexus, herbicidal effect grade (Amaranthus retroflexus [7]; [8]): 0 (Herbicidal ratio of 5% or lower (almost no effect))
F: Digitaria ciliaris, herbicidal effect grade (Digitaria ciliaris [5]): 0 (Herbicidal ratio of 5% or lower (almost no effect))
I: Avena fatua, herbicidal effect grade (Avena fatua): 0 (Herbicidal ratio of 5% or lower (almost no effect))
N: Amaranthus retroflexus, herbicidal effect grade (Amaranthus retroflexus [6]): 0 (Herbicidal ratio of 5% or lower (almost no effect))
O: Chenopodium album, herbicidal effect grade (Chenopodium album): 0 (Herbicidal ratio of 5% or lower (almost no effect))
b: directly sowed rice plant, effect on crop grade (rice plant): 0 (Herbicidal ratio of 5% or lower (almost no effect))
e: wheat, effect on crop grade (wheat): 0 (Herbicidal ratio of 5% or lower (almost no effect))
f: beet, effect on crop grade (beet): 0 (Herbicidal ratio of 5% or lower (almost no effect))
